Laboratory results reported in US20210186879A1, “TARGETED DELIVERY OF HYDROPHILIC DRUGS TO LUNG” (DOUBLE BOND PHARMACEUTICALS AB, priority 2016, published 2021).
Blank lines part the entries; values can stand above or below the molecule they belong to.

How the values were obtained:
[1] = Solubility in aqueous ethanol (UV method); type: physicochemical; conditions: for Solubility in 30% ethanol: doxorubicin salts; for Solubility in 20% ethanol: doxycycline salts, Table 9, in mg/mL
Experimental: The mixture was centrifuged at 3000 rpm for 10 min and the supernatant filtered through a 0.2 micrometer filter to remove aggregates of undissolved solid product. The solubility of the compound was determined by a UV method. Particle size analysis was accomplished by laser diffraction method.

[2] = In vivo distribution of doxorubicin in lung and blood serum of Wistar rats; conditions: 4 hours; for Blood serum DOX / Lung tissue DOX: 5 mg/kg i.v. single bolus, ± SD; for Blood serum Relative difference / Lung tissue Relative difference: relative to control CI-DOX (1)
Experimental: (§1) For in vivo investigation both rats and rabbits were used: female Wistar rats 60-75 days old weighing 300 g±30 g and Californian breed male rabbits 75-90 days old weighing 2000 g±250 g were selected. […] Different doxorubicin containing formulations with a total doxorubicin dose 5 mg/kg were administered via a single bolus injection into the tail for rats and via a slow flow of 1 ml/min in the marginal ear vein for rabbits.
(§2) Five or six pieces of lung tissue of a total weight of about 1 g were taken from different parts of a lung. The samples were homogenized with a solution of aqueous ethanol containing HCl for 20 s at 7000 rpm and for 10 s at 11000 rpm. […] Doxorubicin and doxycycline (DOC) concentration in the final supernatant was determined with fluorometric analysis and high-performance liquid chromatography respectively.
An aqueous solution of doxorubicin hydrochloride, an aqueous suspension of doxorubicin alkane sulfate and an aqueous suspension of doxorubicin alkyl sulfonate were administered via a single bolus injection into the tail Animals were sacrificed after 4 hours after administered via a single bolus injection into the tail; total doxorubicin dose 5 mg/kg. […] The results are summarized in Table 7 and illustrated in FIG. 10.

[3] = In vivo distribution of doxorubicin in lung and femoral muscle of Californian rabbits; conditions: 4 hours; for Femoral muscle DOX / Lung tissue DOX: 1.25 mg/kg i.v. marginal ear vein, ± SD
Experimental: as §1, §2
Suspension of complexes of doxorubicin and doxorubicin hydrochloride were administered via a slow flow of 1 ml/min to rabbits in the marginal ear vein with a total doxorubicin dose 1.25 mg/kg. Animals were sacrificed after 4 hours after administration. Concentration of doxorubicin in lung and femoral muscle was determined in accordance to the procedure described above. As it is seen from table 8 the concentration of doxorubicin in femoral muscle as a representation of a system concentration is not increased for complexes compared with doxorubicin hydrochloride.

[4] = In vivo distribution of doxycycline in lung and blood serum of Wistar rats; conditions: 30 min; for Blood serum Difference / Lung tissue Difference: relative to control CI-DOX (1); for Blood serum DOX / Lung tissue DOX: doxycycline, 3 mg/kg i.v. single bolus, ± SD
Experimental: as §2

[5] = doxorubicin alkyl sulfates and alkane sulfonates, 30% ethanol (v/v)
[6] = doxycycline alkane sulfonates and alkyl sulfates, 20% aqueous ethanol
[7] = irinotecan alkane sulfonates, 30% ethanol (v/v) per table title
[8] = mitoxantrone alkyl sulfates and alkane sulfonates, 30% ethanol (v/v)

Structure (SMILES): CCCCCCCCCCOS(=O)(=O)O.COc1cccc2c1C(=O)c1c(O)c3c(c(O)c1C2=O)CC(O)(C(=O)CO)CC3OC1CC(N)C(O)C(C)O1 (stereo not drawn) [doxorubicin CnH2n+1OSO3^− n=10]
Solubility [1, 5]: 507.7 µg/mL

Structure (SMILES): CCCCCCCCCCCCCCS(=O)(=O)O.COc1cccc2c1C(=O)c1c(O)c3c(c(O)c1C2=O)CC(O)(C(=O)CO)CC3OC1CC(N)C(O)C(C)O1 (stereo not drawn) [doxorubicin CnH2n+1SO3^− n=14]
Solubility [1, 5]: 45.96 µg/mL

Structure (SMILES): CC1c2cccc(O)c2C(O)=C2C(=O)C3(O)C(O)=C(C(N)=O)C(=O)C(N(C)C)C3C(O)C21.CCCCCCCCCCS(=O)(=O)O (stereo not drawn) [doxycycline CnH2n+1SO3^− n=10]
Solubility [1, 6]: 3165 µg/mL

Structure (SMILES): CC1c2cccc(O)c2C(O)=C2C(=O)C3(O)C(O)=C(C(N)=O)C(=O)C(N(C)C)C3C(O)C21.CCCCCCCCCCCCCCS(=O)(=O)O (stereo not drawn) [doxycycline CnH2n+1SO3^− n=14]
Solubility [1, 6]: 55.1 µg/mL

Structure (SMILES): CC1c2cccc(O)c2C(O)=C2C(=O)C3(O)C(O)=C(C(N)=O)C(=O)C(N(C)C)C3C(O)C21.CCCCCCCCCCCCCCCCCCS(=O)(=O)O (stereo not drawn) [doxycycline CnH2n+1SO3^− n=18]
Solubility [1, 6]: 1.81 µg/mL

Structure (SMILES): CCCCCCCCCCS(=O)(=O)O.CCc1c2c(nc3ccc(OC(=O)N4CCC(N5CCCCC5)CC4)cc13)-c1cc3c(c(=O)n1C2)COC(=O)C3(O)CC (stereo not drawn) [irinotecan alkane sulfonate n=10]
Solubility [1, 7]: 834.8 µg/mL

Structure (SMILES): CCCCCCCCCCCCCCS(=O)(=O)O.CCc1c2c(nc3ccc(OC(=O)N4CCC(N5CCCCC5)CC4)cc13)-c1cc3c(c(=O)n1C2)COC(=O)C3(O)CC (stereo not drawn) [irinotecan alkane sulfonate n=14]
Solubility [1, 7]: 70.64 µg/mL

Structure (SMILES): CCCCCCCCOS(=O)(=O)O.CCCCCCCCOS(=O)(=O)O.O=C1c2c(O)ccc(O)c2C(=O)c2c(NCCNCCO)ccc(NCCNCCO)c21 [mitoxantrone CnH2n+1OSO3^− n=8]
Solubility [1, 8]: 780.6 µg/mL

Structure (SMILES): CCCCCCCCCCOS(=O)(=O)O.CCCCCCCCCCOS(=O)(=O)O.O=C1c2c(O)ccc(O)c2C(=O)c2c(NCCNCCO)ccc(NCCNCCO)c21 [mitoxantrone CnH2n+1OSO3^− n=10]
Solubility [1, 8]: 175.8 µg/mL

Structure (SMILES): CCCCCCCCCCCCCCOS(=O)(=O)O.CCCCCCCCCCCCCCOS(=O)(=O)O.O=C1c2c(O)ccc(O)c2C(=O)c2c(NCCNCCO)ccc(NCCNCCO)c21 [mitoxantrone CnH2n+1OSO3^− n=14]
Solubility [1, 8]: 7.2 µg/mL

Structure (SMILES): CCCCCCCCS(=O)(=O)O.CCCCCCCCS(=O)(=O)O.O=C1c2c(O)ccc(O)c2C(=O)c2c(NCCNCCO)ccc(NCCNCCO)c21 [mitoxantrone CnH2n+1SO3^− n=8]
Solubility [1, 8]: 1348 µg/mL

Structure (SMILES): CCCCCCCCCCS(=O)(=O)O.CCCCCCCCCCS(=O)(=O)O.O=C1c2c(O)ccc(O)c2C(=O)c2c(NCCNCCO)ccc(NCCNCCO)c21 [mitoxantrone CnH2n+1SO3^− n=10]
Solubility [1, 8]: 294.9 µg/mL

Structure (SMILES): CCCCCCCCCCCCS(=O)(=O)O.CCCCCCCCCCCCS(=O)(=O)O.O=C1c2c(O)ccc(O)c2C(=O)c2c(NCCNCCO)ccc(NCCNCCO)c21 [mitoxantrone CnH2n+1SO3^− n=12]
Solubility [1, 8]: 683.1 µg/mL

Structure (SMILES): CCCCCCCCCCCCCCS(=O)(=O)O.CCCCCCCCCCCCCCS(=O)(=O)O.O=C1c2c(O)ccc(O)c2C(=O)c2c(NCCNCCO)ccc(NCCNCCO)c21 [mitoxantrone CnH2n+1SO3^− n=14]
Solubility [1, 8]: 2.03 µg/mL

Now from value to molecule:

Blood serum DOX [2]: 0.021 ± 0.007 µg/kg
Lung tissue DOX [2]: 0.77 ± 0.19 µg/kg
Femoral muscle DOX [3]: 0.20 ± 0.02 µg/kg
Lung tissue DOX [3]: 1.61 ± 0.25 µg/kg
Structure (SMILES): CCCCCCCCCCCCOS(=O)(=O)O.COc1cccc2c1C(=O)c1c(O)c3c(c(O)c1C2=O)C[C@@](O)(C(=O)CO)C[C@@H]3O[C@H]1C[C@H](N)[C@H](O)[C@H](C)O1 [doxorubicin CnH2n+1OSO3^− n=12]

Solubility [1, 5]: 2.6 µg/mL
Structure (SMILES): CCCCCCCCCCCCCCCCCCOS(=O)(=O)O.COc1cccc2c1C(=O)c1c(O)c3c(c(O)c1C2=O)CC(O)(C(=O)CO)CC3OC1CC(N)C(O)C(C)O1 (stereo not drawn) [doxorubicin CnH2n+1OSO3^− n=18]

Solubility [1, 5]: 1064 µg/mL
Structure (SMILES): CCCCCCCCCCS(=O)(=O)O.COc1cccc2c1C(=O)c1c(O)c3c(c(O)c1C2=O)CC(O)(C(=O)CO)CC3OC1CC(N)C(O)C(C)O1 (stereo not drawn) [doxorubicin CnH2n+1SO3^− n=10]

Blood serum DOX [2]: 0.014 ± 0.003 µg/kg
Lung tissue DOX [2]: 0.88 ± 0.09 µg/kg
Blood serum Relative difference [2]: 0.75
Lung tissue Relative difference [2]: 1.24
Structure (SMILES): CCCCCCCCCCCCS(=O)(=O)O.COc1cccc2c1C(=O)c1c(O)c3c(c(O)c1C2=O)CC(O)(C(=O)CO)CC3OC1CC(N)C(O)C(C)O1 (stereo not drawn) [doxorubicin CnH2n+1SO3^− n=12]

Solubility [1, 5]: 11.94 µg/mL
Solubility in 30% ethanol ([1]; Table 7): 0.012
Solubility in 30% ethanol ([1]; Table 8): 0.0119
Blood serum DOX [2]: 0.019 ± 0.007 µg/kg
Lung tissue DOX [2]: 6.11 ± 0.75 µg/kg
Blood serum Relative difference [2]: 1.04
Lung tissue Relative difference [2]: 8.61
Femoral muscle DOX [3]: 0.12 ± 0.06 µg/kg
Lung tissue DOX [3]: 10.70 ± 0.77 µg/kg
Femoral muscle Relative difference ([3]; relative to control CI-DOX (1)): 0.52
Lung tissue Relative difference ([3]; relative to control CI-DOX (1)): 12.89
Structure (SMILES): CCCCCCCCCCCCCCCCS(=O)(=O)O.COc1cccc2c1C(=O)c1c(O)c3c(c(O)c1C2=O)CC(O)(C(=O)CO)CC3OC1CC(N)C(O)C(C)O1 (stereo not drawn) [doxorubicin CnH2n+1SO3^− n=16]

Solubility [1, 5]: 2.79 µg/mL
Structure (SMILES): CCCCCCCCCCCCCCCCCCS(=O)(=O)O.COc1cccc2c1C(=O)c1c(O)c3c(c(O)c1C2=O)CC(O)(C(=O)CO)CC3OC1CC(N)C(O)C(C)O1 (stereo not drawn) [doxorubicin CnH2n+1SO3^− n=18]

Solubility [1, 6]: 3777 µg/mL
Structure (SMILES): CC1c2cccc(O)c2C(O)=C2C(=O)C3(O)C(O)=C(C(N)=O)C(=O)C(N(C)C)C3C(O)C21.CCCCCCCCCCOS(=O)(=O)O (stereo not drawn) [doxycycline CnH2n+1OSO3^− n=10]

Blood serum Difference [4]: 1.10
Lung tissue Difference [4]: 3.20
Blood serum DOX [4]: 127 ± 22 ng/mL
Lung tissue DOX [4]: 551 ± 185 ng/mL
Structure (SMILES): CC1c2cccc(O)c2C(O)=C2C(=O)C3(O)C(O)=C(C(N)=O)C(=O)C(N(C)C)C3C(O)C21.CCCCCCCCCCCCOS(=O)(=O)O (stereo not drawn) [doxycycline CnH2n+1OSO3^− n=12]

Solubility [1, 6]: 117.8 µg/mL
Solubility in 20% ethanol [1]: 0.1178
Blood serum Difference [4]: 0.39
Lung tissue Difference [4]: 9.20
Blood serum DOX [4]: 45 ± 1 ng/mL
Lung tissue DOX [4]: 1582 ± 101 ng/mL
Structure (SMILES): CC1c2cccc(O)c2C(O)=C2C(=O)C3(O)C(O)=C(C(N)=O)C(=O)C(N(C)C)C3C(O)C21.CCCCCCCCCCCCCCOS(=O)(=O)O (stereo not drawn) [doxycycline CnH2n+1OSO3^− n=14]

Solubility [1, 6]: 31.99 µg/mL
Structure (SMILES): CC1c2cccc(O)c2C(O)=C2C(=O)C3(O)C(O)=C(C(N)=O)C(=O)C(N(C)C)C3C(O)C21.CCCCCCCCCCCCCCCCOS(=O)(=O)O (stereo not drawn) [doxycycline CnH2n+1OSO3^− n=16]

Solubility [1, 6]: 5.23 µg/mL
Structure (SMILES): CC1c2cccc(O)c2C(O)=C2C(=O)C3(O)C(O)=C(C(N)=O)C(=O)C(N(C)C)C3C(O)C21.CCCCCCCCCCCCCCCCCCOS(=O)(=O)O (stereo not drawn) [doxycycline CnH2n+1OSO3^− n=18]

Solubility [1, 6]: 320.3 µg/mL
Solubility in 20% ethanol [1]: 0.3203
Blood serum Difference [4]: 0.53
Lung tissue Difference [4]: 5.48
Blood serum DOX [4]: 61 ± 7 ng/mL
Lung tissue DOX [4]: 943 ± 600 ng/mL
Structure (SMILES): CC1c2cccc(O)c2C(O)=C2C(=O)C3(O)C(O)=C(C(N)=O)C(=O)C(N(C)C)C3C(O)C21.CCCCCCCCCCCCS(=O)(=O)O (stereo not drawn) [doxycycline CnH2n+1SO3^− n=12]

Solubility [1, 6]: 10.34 µg/mL
Solubility in 20% ethanol [1]: 0.0103
Blood serum Difference [4]: 0.22
Lung tissue Difference [4]: 11.74
Blood serum DOX [4]: 25 ± 2 ng/mL
Lung tissue DOX [4]: 2020 ± 117 ng/mL
Structure (SMILES): CC1c2cccc(O)c2C(O)=C2C(=O)C3(O)C(O)=C(C(N)=O)C(=O)C(N(C)C)C3C(O)C21.CCCCCCCCCCCCCCCCS(=O)(=O)O (stereo not drawn) [doxycycline CnH2n+1SO3^− n=16]

Solubility [1, 7]: 154.5 µg/mL
Structure (SMILES): CCCCCCCCCCCCS(=O)(=O)O.CCc1c2c(nc3ccc(OC(=O)N4CCC(N5CCCCC5)CC4)cc13)-c1cc3c(c(=O)n1C2)COC(=O)C3(O)CC (stereo not drawn) [irinotecan alkane sulfonate n=12]

Solubility [1, 7]: 14.76 µg/mL
Structure (SMILES): CCCCCCCCCCCCCCCCS(=O)(=O)O.CCc1c2c(nc3ccc(OC(=O)N4CCC(N5CCCCC5)CC4)cc13)-c1cc3c(c(=O)n1C2)COC(=O)C3(O)CC (stereo not drawn) [irinotecan alkane sulfonate n=16]
